In patent US10995186B2, “Light-activated preparation of hydrogels” (Otago Innovation Limited, priority 2015, dated 2021):
Where two headings read alike, the source gives them in different places.

How the values were obtained:
[1] = test system: human ovarian adenocarcinoma cell lines (SKOV3); assay: cells; details: SK-OV-3, 96 h
Procedure: (§1) Experiments were carried out with human ovarian adenocarcinoma cell lines (SKOV3) and normal human foreskin fibroblasts (HFF). […] Cells were expanded at 37° C. in a humidified 5% CO2/95% air incubator and media was changed twice a week.
(§2) Each cell encapsulated microspheres was then transferred to well in a 96-well polystyrene plate (Falcon). 150 μL of cell culture media was then pipetted into the wells and placed in the incubator and the media was changed twice a week.

[2] = test system: assembled cancer construct; assay: Darkfield images of doxorubicin-treated cancer construct; assay type: cell-based, human
Text: To print the assembled construct (n=3) a layer-by-layer approach was opted so as to not limit the height of the scaffold that can be constructed using the system. In this scheme the first layer of the scaffold (8 layers of fibre strands) was printed (as described earlier) and then 4 (2×2 fashion) live microspheres were inserted into the pores of the 3D plotted scaffold. This process was repeated to generate a second layer of the scaffold (4 layers of fibre strands) and then 4 more microspheres were inserted into the scaffold. But for the manually assembled scaffold, the whole scaffold was printed at once and the micro-tissues were inserted manually into pre-printed scaffolds in a similar format to the ones assembled with the automated system.
The cytotoxicity test was used to evaluate in vitro antitumor activity of Doxorubicin on cells in 2D, microspheres and assembled cancer construct. […] On day 1 of forming the microspheres, SKOV3, HFF and co-culture cancer constructs were manually assembled and transferred to a 24-well plate with 1.2 ml of media per well. On day 7, for the cytotoxicity test on 2D model, SKOV3s, HFFs and co-culture (75% SKOV3 and 25% HFF) cells were seeded onto a 48-well plate at 30,000 cells and 200 μl of media per well. […] Media with 5% FBS containing the specific concentration of drug was changed every 2 days. […]

[3] = test system: co-culture (75% SKOV3 and 25% HFF) cells; assay: cells; details: Homo sapiens, 96 h
[4] = test system: normal human foreskin fibroblasts (HFF); assay: cells; details: Fibroblast, 96 h
[5] = test system: normal human foreskin fibroblasts (HFF); details: Fibroblast
[6] = test system: co-culture (75% SKOV3 and 25% HFF) cells
[7] = test system: human ovarian adenocarcinoma cell lines (SKOV3)
Procedure: as §1, §2

[8] = Deformation of thickness (oxygen inhibition) of Gel-MA/collagen hydrogel; assay type: physicochemical; details: Gel-MA+Collagen 1 discs
Procedure: The constructs were then irradiated for 15 minutes in the presences of a photo-initiator and a light source, where the surfaces of the constructs were exposed to oxygen. In a first experiment, the light intensity was kept at 3 mW/cm^2 whereas the photo-initiator concentrations were varied from 0.05 to 0.5 wt % and 0.2/2 mM to 2/20 mM for 12959 and Ru/SPS respectively. In a second experiment the light intensity was varied from 3 to 100 mW/cm^2 while keeping the photo-initiator concentrations constant at 0.05 wt % and 0.2/2 mM for 12959 and Ru/SPS respectively. The level of oxygen inhibition was characterised as the deformation of thickness before (to) and after equilibrium swelling (ts). The deformation of thickness is given by the equation: Deformation of thickness=[(t0−ts)/t0]×100.

[9] = test system: human articular chondrocytes (HAC)
Procedure: (§3) Articular cartilage biopsies were harvested with ethics approval from a consenting patient. The cartilage was diced into 1 to 2 mm cubes and digested overnight at 37° C. with 0.15% w/v collagenase type II in basic chondrocyte media (DMEM high glucose media supplemented with 10% FCS, 10 mM HEPES, 0.2 mM L-ascorbic acid-2-phosphate, 0.4 mM L-proline and 1% PS). The resulting suspension was filtered through a 100-μm cell strainer (BD Biosciences) to exclude the undigested tissue and centrifuged at 700-g for 4 min. The isolated chondrocytes (HAC) were cultured in basic chondrocyte media and expanded at 37° C. in a humidified 5% CO2/95% air incubator.
(§4) HAC in culture flasks were trypsinised, suspended in basic chondrocyte media, and seeded in 48 well plates at a concentration of 50 HACs/mm^2. The cells were firstly allowed to attach to the surface for 4 hours, then exposed to either 30 mW/cm^2 of UV or visible light (15 minutes), with or without 0.05 wt % of 12959 or 0.2/2 Ru/SPS (mM) respectively. […] After 1 and 7 days, the cells were visualised and quantified using the live/dead assay. […]
(§5) The cells will stain green if alive and red if dead. After staining, the gels were washed with PBS for three times before imaging them using a fluorescence microscope (Zeiss axioimager Z1). The cells were quantified using the ImageJ software and the cell viability was calculated using the equation below:

[10] = test system: Breast adenocarcinoma cells (MCF-7)
Procedure: A live/dead assay was performed after 1 day to evaluate the viability of encapsulated MCF-7 cells.

[11] = test system: human articular chondrocytes (HAC); assay: Photo-toxicity and radical toxicity evaluation, HAC on 2D surfaces; details: 7 days post treatment, light plus initiator
Procedure: as §3, §4, §5

[12] = test system: human articular chondrocytes (HAC); assay: GAG assay of HAC encapsulated in Gel-MA hydrogels; assay type: cell-based; details: at 21 days
Procedure: Cell-laden Gel-MA samples were digested overnight in 200 μL of 1 mg/ml proteinase-K solution at 56° C. In order to quantify the amount of GAG retained in the gel, the digested samples were reacted with DMMB. The absorbance of the samples was then measured at 492 nm (Fluostar Galaxy BMG Labtechnology). The GAG concentrations were calculated from a standard curve constructed using known concentrations of CS-A. The amount of DNA in the gels was measured using the CyQUANT kit. The cells in the digested samples were firstly lysed and RNA degraded using the provided lysis buffer with RNase A (1.35 KU/ml) added for 1 hour at RT. GR-dye solution was then added to the samples, incubated at RT for 15 minutes then the fluorescence was measured (Fluostar Galaxy BMG Labtechnology). A standard curve was constructed using the DNA provided in the kit.

[13] = read-out: IC50 Assembled construct

In the case of COc1cccc2c1C(=O)c1c(O)c3c(c(O)c1C2=O)C[C@@](O)(C(=O)CO)C[C@@H]3O[C@H]1C[C@H](N)[C@H](O)[C@H](C)O1 [doxorubicin, Doxorubicin], the IC50 ([1]; read-out: IC50 2D) is reported as 50 nM, the IC50 [1, 13] is reported as 2410 nM and the IC50 ([1]; read-out: IC50 Microspheres) is reported as 150 nM. For the same molecule, the “tissue present in cancer construct (darkfield images)” value ([2]; 1 μM drug) was “atrophy of the tissue”, the “tissue present in cancer construct (darkfield images)” value ([2]; 10 μM drug) was “almost no tissue present” and the IC50 ([3]; read-out: IC50 2D) was 80 nM. For the same molecule, the IC50 [3, 13] was 5560 nM, the IC50 ([3]; read-out: IC50 Microspheres) was 290 nM and the IC50 ([4]; read-out: IC50 2D) was 160 nM. For the same molecule, the IC50 [4, 13] was 3810 nM, the IC50 ([4]; read-out: IC50 Microspheres) was 180 nM and the “Fold change in IC50 Assembled construct/microspheres” value [5] was 21.41. The “Fold change in IC50 Assembled construct/monolayer” value [5] was 24.32, the “Fold change in IC50 Microspheres/monolayer” value [5] was 1.14 and the “Fold change in IC50 Assembled construct/microspheres” value [6] was 19.34. The “Fold change in IC50 Assembled construct/monolayer” value [6] was 70.14, the “Fold change in IC50 Microspheres/monolayer” value [6] was 3.63 and the “Fold change in IC50 Assembled construct/microspheres” value [7] was 16.33. For the same molecule, the “Fold change in IC50 Assembled construct/monolayer” value [7] was 48.32 and the “Fold change in IC50 Microspheres/monolayer” value [7] was 2.96.
For CC(C)(O)C(=O)c1ccc(OCCO)cc1 [UV+I2959, 1-[4-(2-hydroxyethoxy)-phenyl]-2-hydroxy-2-methyl-1-propane-1-one], the “reduction of thickness (deformation of thickness)” value ([8]; 3 mW/cm^2, 0.05 wt % I2959 or 0.2/2 Ru/SPS (mM)) was roughly 55%, the deformation of thickness ([8]; 3 mW/cm^2, 0.5 wt % I2959 or 2/20 Ru/SPS (mM), controls without oxygen <10%) was “comparable to the controls” and the “number of cells attached” value [9] was 20 HACs/mm^2. For the same molecule, the cell viability [10] was 50%, the “cell morphology (live-dead stain)” value [11] was “the cells became rounded” and the GAG/gel [12] was 0.1 µg/mg.
